This passage reports Kb results from publication PMC9516684 (2022).

Molecules are shown by their SMILES.

The subject of test [1] is AT (DNA, duplex) ATATATATATAT
The test is described as follows: UV-visible absorbance titration 415 nm, Bard fit. Particulars: Na+ (20 mM sodium phosphate), 20 mM sodium phosphate pH 7.0, 298 K, per base.

Test [2] deals with AT (DNA, duplex) ATATATATATAT
The test is described as follows: luminescence titration 750 nm, Bard fit. Particulars: Na+ (20 mM sodium phosphate), 20 mM sodium phosphate pH 7.0, 298 K, per base.

Test [3] deals with (5′-CCGGTACCGG)2 (TA step) (DNA, duplex) CCGGTACCGG
The test is described as follows: UV-visible absorbance titration 355 nm, Bard fit. Particulars: Na+ (20 mM sodium phosphate); 20 mM sodium phosphate pH 7.0, 298 K; site size s 3.17 (±0.07); per base.

The test system of test [4] is AT (DNA, duplex) ATATATATATAT
The experiment in a line: UV-visible absorbance titration 355 nm, Bard fit. Particulars: Na+ (20 mM sodium phosphate), 20 mM sodium phosphate pH 7.0, 298 K, per base.

In test [5] the test system is (5′-CCGGATCCGG)2 (AT step) (DNA, duplex) CCGGATCCGG
The experiment in a line: luminescence titration 750 nm, Bard fit. Particulars: Na+ (20 mM sodium phosphate); 20 mM sodium phosphate pH 7.0, 298 K; s 5.5; caption says luminescence 750 nm, column head 415 nm absorbance; per base.

The test system is the same in test [6]. The test is described as follows: UV-visible absorbance titration 355 nm, Bard fit. Particulars: Na+ (20 mM sodium phosphate); 20 mM sodium phosphate pH 7.0, 298 K; site size s 3.5 (±0.7); per base.
In test [7] the test system is (5′-CCGGTACCGG)2 (TA step) (DNA, duplex) CCGGTACCGG
The experiment in a line: luminescence titration 750 nm, Bard fit. Particulars: Na+ (20 mM sodium phosphate); 20 mM sodium phosphate pH 7.0, 298 K; s 7.6; caption says luminescence 750 nm, column head 415 nm absorbance; per base.

Consider `[Os+2].c1ccc2nc3c4cccnc4c4ncccc4c3nc2c1.c1cnc2c(ccc3nccnc32)n1.c1cnc2c(ccc3nccnc32)n1`, for which the Kb in test [1] (site size s 4.5 (±0.1)) was 8.7 (±1.2) × 10^6 M^–1; in test [1] (site size s 6.0 (±0.2)), 5.1 (±1.6) × 10^6 M^–1; in test [2] (site size s 3.8 (±0.1)), 8.5 (±0.5) × 10^6 M^–1; in test [2] (site size s 5.0 (±0.1)), 1.1 (±0.3) × 10^7 M^–1.
Regarding `[Os+2].c1cnc2c(ccc3nccnc32)n1.c1cnc2c(ccc3nccnc32)n1.c1cnc2nc3c4cccnc4c4ncccc4c3nc2c1`, the Kb is recorded as 2.2 (±0.4) × 10^6 M^–1 in test [3]; 2.0 (±0.3) × 10^6 M^–1 in test [4] (site size s 4.4 (±0.1)); 5.0 (±0.8) × 10^6 M^–1 in test [4] (site size s 5.6 (±0.1)); 1.0 (±0.2) × 10^6 M^–1 in test [5]; 4.5 (±1.3) × 10^6 M^–1 in test [2] (site size s 4.6 (±0.1)); 1.4 (±0.4) × 10^7 M^–1 in test [2] (site size s 7.7 (±0.08)). In addition, the Kb in test [6] is reported as 3.8 (±1.5) × 10^6 M^–1; in test [7], 1.4 (±0.3) × 10^6 M^–1.
